Source: US20230167068A1, “BENZOPYRAZOLE COMPOUND” (MEDSHINE DISCOVERY INC., priority 2019, published 2023)

Legend:
[1] = system: hMMP-1 promoter reporter gene in Hela cells (GR transcription repression); experiment: hMMP1 transcription repression activity, luciferase reporter gene screening system (hMMP1 GR transcription repression test); format: cell-based; conditions: Homo sapiens; for Emax: HeLa, maximum effect value, positive control 1000 nM dexamethasone, read-out: TR (hMMP1 transcription inhibition activity) Effect; for IC50: absolute IC50, HeLa hMMP-1/luciferase cells, 10 nM PMA, 18 h, max concentration 1000 nM, read-out: TR (hMMP1 transcription inhibition activity) IC50
Text: Human MMP-1 promoter region (containing two AP-1 binding sites and two PEA3 sites, a total of 249bp, GenBank catalog #AF023338) was cloned into the upstream of luciferase reporter gene. The hMMP-1 promoter reporter gene was constructed and transfected into Hela cells so that luciferase production could be easily detected. A stable recombinant hMMP-⅟luciferase cell line was used for the development and validation of this experiment.
• [0377] 1) All the culture media were carefully aspirated, and the cell layer was rinsed gently with an appropriate amount of DPBS, and then aspirated. • [0378] 2) An appropriate amount of 0.05% Typsine EDTA was added and incubated in a CO2 incubator for 3-5 minutes to digest the cells. • [0379] 3) The cells were resuspended with an appropriate amount of cell culture medium. • [0380] 4) The required amount of cells were calculated. The cell concentration was 5x10^3 cells/well. • [0381] 5) The cell suspension was diluted with appropriate cell culture medium. • [0382] 6) The cell suspension was dispensed into a disposable sterile loading slot. • [0383] 7) Inoculated 30µL per well into a 384-well plate. • [0384] 8) The cell plate was placed in a 37° C. 5% CO2 incubator for 18-24 hours.
The final DMSO concentration was 0.1%. PMA needs to be protected from light during use.
hMMP1 GR transcription repression activity test • [0395] 1) Inoculated cells: Fresh cells were inoculated into 384 white experimental plates at 5x10^3 cells/30µL/well, and incubated in a 5% CO2 incubator at 37° C. for 24 hours. • [0396] 2) Compound preparation: The compound plate was prepared before the experiment, and the reference compound (dexamethasone) and the tested compound of 10x concentration were prepared. Finally, the experimental plate of 10× concentration compound was obtained. • [0397] 3) Added compound: 3.3 µL of 10x compound was transferred with Bravo and added to cell plate. Incubated for 18 hours in a 5% CO2 incubator at 37° C. • [0398] 4) 30 µL of Bright-Glo fluorescent detection reagent was transferred to the cell plate. • [0399] 5) Centrifugal incubation for 2 minutes. • [0400] 6) The fluorescence value was measured with the Envision plate reader.
Positive Control: 10 nM PMA + 1000 nM dexamethasone (0.1% DMSO)
Negative control: 10 nM PMA (0.1% DMSO)
(§1) Test compound: Maximum concentration of 1000 nM, 4-fold dilution, 10 wells in total, repeated.
(§2) Dexamethasone: Maximum concentration of 1000 nM, 4-fold dilution, 10 wells in total, repeated.
The graphing software GraphPad Prism5 was used to create the concentration curves of the test compounds and calculate the IC50 values.

[2] = system: MMTV promoter luciferase reporter in HeLa cell line (GR transcription activation); experiment: MMTV transcription activation activity, luciferase reporter gene screening system (MMTV_GR transcription activation experiment); format: cell-based; conditions: Homo sapiens; for Emax: HeLa, maximum effect value, positive control 1000 nM dexamethasone, read-out: TA (MMTV transcription activation activity) Effect; for EC50: absolute EC50, HeLa MMTV-luciferase cells, 18 h, max concentration 1000 nM, read-out: TA (MMTV transcription activation activity) EC50
Text: The promoter of mouse mammary tumor virus (MMTV) contains specific binding sites for activating GRs (GREs). To determine the activity of the compounds, a reporter gene (luciferase) was inserted after the MMTV promoter, and this construct was expressed in a stable manner in the genome of the HeLa cell line. MMTV promoter was activated by the test compounds to induce the expression of luciferase, and its activity was detected by luminescence measurement.
• [0442] 1) All the culture media were carefully aspirated, the cell layer was rinsed gently with an appropriate amount of DPBS, and then aspirated. • [0443] 2) An appropriate amount of 0.05% Typsine EDTA was added and incubated in a CO2 incubator for 3-5 minutes to digest the cells. • [0444] 3) The cells were resuspended with an appropriate amount of cell culture medium. • [0445] 4) The amount of cells required was calculated, and the cell concentration was 4×10^3 cells/well. • [0446] 5) The cell suspension was diluted with appropriate cell culture medium. • [0447] 6) Cell suspension was dispensed into a disposable sterile loading slot. • [0448] 7) Inoculated 30 µL per well into a 384-well plate. • [0449] 8) The cell plate was placed in a 37° C. 5% CO2 incubator for 18-24 hours.
Compounds were diluted with DMSO to 1 mM, 0.25 mM, 0.0625 mM, 0.015625 mM, 0.0039 mM, 0.0009765 mM, 0.000244 mM, 0.000061 mM, 0.00001526 mM and 0.0000038125 mM, then diluted 25-fold with serum culture medium treated with activated carbon, and finally 4x concentration compound experimental plate was obtained, prepared before use.
The final DMSO experimental concentration was 0.1%.
MMTV_GR transcription activation activity experiment • [0458] 1) Inoculated cells: Fresh cells were inoculated into 384 white transparent bottom experimental plates at 4×10^3 cells/30 µL/well, and incubated at 37° C. 5% CO2 incubator for 24 hours. • [0459] 2) Compound preparation: The compound plate was prepared before the experiment, and the reference compound (dexamethasone) and the test compound of 4x concentration were prepared. Finally, the experimental plate of 4x concentration compound was obtained. • [0460] 3) Added compound: 10 µL of 4x compound was transferred with Bravo and added to cell plate. Incubated for 18 hours in a 37° C. 5% CO2 incubator. • [0461] 4) 30 µL of Bright-Glo fluorescent detection reagent was transferred to the cell plate. • [0462] 5) Centrifugal incubation for 2 minutes. • [0463] 6) The fluorescence value was measured with the Envision plate reader.
Positive control: 1000 nM dexamethasone (0.1% DMSO)
Negative control: 0.1% DMSO
as §1, §2
The graphing software GraphPad Prism5 was used to create the concentration curves of the tested compounds and calculate the IC50 values.

IC50 [1]	SMILES	Emax [1]	Emax [2]	EC50 [2]
28.4 nM	CC(C)[C@H](NC(=O)C(C)(F)F)[C@H](Oc1ccc2c(cnn2-c2cn3cnnc3cn2)c1)c1ccccc1 [WX025]	76.1%		
56.6 nM	CC(C)[C@H](NC(=O)C(C)(F)F)[C@H](Oc1ccc2c(cnn2-c2ccc3nn(C)c(=O)n3c2)c1)c1ccccc1 [WX032]	57.4%		
42.7 nM	CC(C)[C@H](NC(=O)C(C)(F)F)[C@H](Oc1ccc2c(cnn2-c2ccc3n[nH]c(=O)n3c2)c1)c1ccccc1 [WX031]	54.4%		
70.6 nM	CC(C)[C@H](NC(=O)C(C)(F)F)[C@H](Oc1ccc2c(cnn2-c2cnc3cnccn23)c1)c1ccccc1 [WX027]	79%		
121 nM	CC(C)[C@H](NC(=O)C(C)(F)F)[C@H](Oc1ccc2c(cnn2-c2ccc3ncccc3c2)c1)c1ccccc1 [WX007]	63.6%		
11.6 nM	CC(C)[C@H](NC(=O)C(C)(F)F)[C@H](Oc1ccc2c(cnn2-c2ccc3noc(=O)n3c2)c1)c1ccccc1 [WX033]	71.8%		
58.9 nM	CC(C)[C@H](NC(=O)C(C)(F)F)[C@H](Oc1ccc2c(cnn2-c2ccc3c(c2)OCO3)c1)c1ccccc1 [WX008]	91.4%		
79.2 nM	CC(C)[C@H](NC(=O)C(C)(F)F)[C@H](Oc1ccc2c(cnn2-c2ccc3c(c2)CCCO3)c1)c1ccccc1 [WX006]	73%		

Second part, the compound before the results:

SMILES	IC50 [1]	Emax [1]	Emax [2]	EC50 [2]
C[C@H](NC(=O)C(C)(F)F)[C@H](Oc1ccc2c(cnn2-c2ccn3cnnc3c2)c1)c1cc(F)cc(F)c1 [WX029]	13.9 nM	93.8%	62.9%	21.4 nM
Cc1nnc2ccc(-n3ncc4cc(O[C@H](c5cc(F)cc(F)c5)[C@H](C)NC(=O)C(C)(F)F)ccc43)cn12 [WX037]	5.66 nM	87.8%	73%	12.6 nM
CC(C)[C@H](NC(=O)C(C)(F)F)[C@H](Oc1ccc2c(cnn2-c2cnn(C)c2)c1)c1ccccc1 [WX045]	6.74 nM	73.6%	55.6%	12.9 nM
CC(C)[C@H](NC(=O)C(C)(F)F)[C@H](Oc1ccc2c(cnn2-c2ccc3c(c2)CCO3)c1)c1ccccc1 [WX005]	6.75 nM	70.7%		
C[C@H](NC(=O)C(C)(F)F)[C@H](Oc1ccc2c(cnn2-c2cscn2)c1)c1ccccc1 [WX052]	0.97 nM	92.5%	57.8%	3.37 nM
CC(C)[C@H](NC(=O)C(C)(F)F)[C@H](Oc1ccc2c(cnn2-c2ccc3nnnn3c2)c1)c1ccccc1 [WX024]	32.5 nM	54.5%	31.5%	78.2 nM
C[C@H](NC(=O)C(C)(F)F)[C@H](Oc1ccc2c(cnn2-c2ccc3[nH]c(=O)oc3c2)c1)c1cc(F)cc(F)c1 [WX036]	0.905 nM	92.8%	80.1%	2.31 nM
CC(C)[C@H](NC(=O)C(C)(F)F)[C@H](Oc1ccc2c(cnn2-c2cnn(C)c2)c1)c1cc(F)cc(F)c1 [WX042]	1.38 nM	89%	43.5%	3.06 nM
C[C@H](NC(=O)C(C)(F)F)[C@H](Oc1ccc2c(cnn2-c2ccc3nccn3c2)c1)c1ccccc1 [WX012]			103%	0.019 nM
